{"source": "patent US20140303123A1", "about": "“SYNTHESIZING FUNCTIONALIZED DENDRIMERS WITHIN BIOLOGICAL SETTINGS” (priority 2011, published 2014)", "key": {"folate receptor": {"tested_on": "folate receptor", "details": "relative to folic acid; cited from earlier work"}, "[1]": {"tested_on": "FRα over-expressing KB cells", "experiment": "Uptake of dendrimer conjugates in KB cells, in situ CuAAC detection with fluorescent azide, flow cytometry", "assay_type": "cell-based", "details": "increasing concentrations, 1 hour at 37° C., Alexa647-azide detection (FIG. 2A)", "procedure": "KB cells were cultured in RPMI 1640 medium without folic acid for at least 4 days before experiments, resulting in the folic acid receptor overexpressing KB (FAR-KB) cell line. […] For the flow cytometry measurements, cells were seeded on a 12-well plate for tissue culture at a concentration of 23105 cells/well and grown in folic acid deficient RPMI 1640 media (Mediatech, Herndon, Va.) at 37° C., 5% CO2 for 24 hr. The cells were then incubated with the series of the prepared nanodevices at either 37° C. for 1 hr. After removal of supernatants, cells were trypsinized and collected into FACS tubes, followed by centrifugation at 1500 rpm for 5 min to obtain cell pellets. […] Fluorescence signal intensities from the samples were measured using a Coulter EPICS/XL MCL Beckman-Coulter flow cytometer, and data were analyzed using FloJo 8.2 software (TreeStar).\nAfter 4% paraformaldehyde fixation and permeabilization with 10% saponin in PBS and BSA, cells were rinsed and then stained by incubating cells for 30 min with 100 mM Tris (pH 8.5), 1 mM CuSO4, 1-100 μM fluorescent azide (in DMSO), and 100 mM ascorbic acid (added last to the mix in 0.5 M stock in water). […] After staining, cells were washed with 10% saponin solution and assessed by flow cytometry."}, "[2]": {"tested_on": "CD11b+ macrophages (peritoneal macrophages, lymph nodes)", "experiment": "In vivo trafficking of FA-targeted dendrimer nanoparticles in a murine model of inflammation (thioglycollate IP)", "details": "thioglycollate-stimulated mice, 35 mg/kg IP on day 3, cells isolated day 4 (FIG. 6); for uptake in peritoneal macrophages (PEM): 35 mg/kg", "description": "Mice (n=2) were stimulated with thioglycollate IP. 3 days following thioglycollate, mice were administered 200 μl (35 mg/kg) folate functionalized dendrimer alkyne scaffolds. One day later (day 4), peritoneal macrophages (PEM), spleen, cervical lymph nodes, and mesenteric lymph nodes were isolated and processed into single-cell suspensions. Suspensions were stained with a CD11b monoclonal PE antibody and then fixed and permeabilized. Cell suspensions were then reacted with AlexaFluor 647-azide to detect dendrimer conjugates and analyzed by flow cytometry.\nOn day 1, mice (n=2) were treated IP with thioglycollate to stimulate folate receptor positive macrophage infiltration into the peritoneal cavity (see, e.g., Xia, W. et al. Blood 113, 438-446 (2005); herein incorporated by reference in its entirety). On day 3, mice were administered folate targeted dendrimers IP (35 mg/kg). On day 4, peritoneal macrophages (PEM) as well as the spleen, submandibular lymph nodes, and mesenteric lymph nodes were isolated and processed as using standard techniques. Single cell suspensions were made and analyzed by flow cytometry for co-expression of the macrophage marker CD11b and the FA-dendrimer scaffolds. […] Compared to the cervical lymph nodes (secondary lymph organs not draining the peritoneal cavity), there was a greater proportion of double-positive CD11b and FR cells in the mesenteric lymph nodes consistent with the trafficking of these activated macrophages."}, "[3]": {"tested_on": "bone marrow derived macrophages (BMDM)", "details": "BMDMs differentiated with IL-4 and IL-10, 30 nM, 6 hours at 37° C. (FIG. 4)", "procedure": "Bone marrow derived macrophages (BMDM) were obtained as previously described. Briefly, bone marrow precursors from female C57BL/6 mice were isolated and propagated for 7 days in RPMI 1640 supplemented with penicillin (100 units/ml), streptomycin (100 mg/ml), and 10% heat inactivated low endotoxin fetal bovine serum with L-conditioned media. Following propagation, BMDMs were polarized with murine recombinant proteins M-CSF (10 ng/ml), IL4 (50 ng/ml), IL10 (10 ng/ml), or GM-CSF (10 ng/ml) for 72 hours (Peprotech). For the flow cytometry measurements, cells were seeded on a 12-well plate for tissue culture at a concentration of 23105 cells/well and grown in folic acid deficient RPMI 1640 media (Mediatech, Herndon, Va.) at 37° C., 5% CO2 for 24 hr. […] Fluorescence signal intensities from the samples were measured using a Coulter EPICS/XL MCL Beckman-Coulter flow cytometer, and data were analyzed using FloJo 8.2 software (TreeStar).\nAfter 4% paraformaldehyde fixation and permeabilization with 10% saponin in PBS and BSA, cells were rinsed and then stained by incubating cells for 30 min with 100 mM Tris (pH 8.5), 1 mM CuSO4, 1-100 μM fluorescent azide (in DMSO), and 100 mM ascorbic acid (added last to the mix in 0.5 M stock in water). […] After staining, cells were washed with 10% saponin solution and assessed by flow cytometry. […]"}}}
{"molecule": "CN(Cc1cnc2nc(N)nc(N)c2n1)c1ccc(C(=O)N[C@@H](CCC(=O)O)C(=O)O)cc1", "note": "[methotrexate]", "values": [{"measurement": "affinity for the folate receptor in comparison to folic acid (lower)", "setting": "folate receptor", "result": 100, "unit": "fold"}]}
{"molecule": "G5-NHAc80-Alkyne8-FA4-Gly [FA-dendrimer alkyne conjugates]", "values": [{"measurement": "cellular uptake", "setting": "[1]", "result": "dose-dependent cellular uptake"}, {"measurement": "uptake in CD11b+ cells in the mesenteric lymph nodes", "setting": "[2]", "result": "significant uptake"}, {"measurement": "uptake in peritoneal macrophages (PEM)", "setting": "[2]; listed as FA-dendrimer nanoparticles", "result": "much higher uptake"}, {"measurement": "uptake in peritoneal macrophages (PEM)", "setting": "[2]; listed as folate nanodevices", "result": "significant uptake"}]}
{"molecule": "G5-NHAc80-Alkyne12-Gly [non-targeted dendrimer conjugates]", "values": [{"measurement": "cellular uptake", "setting": "[1]", "result": "did not demonstrate any significant uptake"}]}
{"molecule": "G5-NHAc80-Alkyne12-Mannose15-Gly [mannose-targeted dendrimers]", "values": [{"measurement": "binding and uptake compared to non-targeted controls", "setting": "[3]", "result": "increased binding and uptake"}]}
